Columns and labels:
Assay in all cases: Herbicidal effect by foliage and soil treatment
Assay type in all cases: in vivo
Settings in all cases: 10 g ai/10a, evaluated after 14 days
[1] = tested on: kediock (Sinapis arvensis)
In short: (§1)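 Post-emergence spray, cotyledon to bifoliate stage; Tween 20/water vehicle, fixed dose per area; greenhouse 19–25 °C; 14 d; visual growth rating vs untreated.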

[2] = tested on: ivyleafspeedwell (Veronica hederaefolia)
In short: as §1

[3] = tested on: common blackjack (Bidens pilosa)
In short: as §1

[4] = tested on: redroot pigweed (Amaranthus retroflexus)
In short: as §1

[5] = tested on: velvetleaf (Abutilon theophrasti)
In short: as §1

[6] = tested on: cleavers (Galium aparine)
In short: as §1

[7] = tested on: field bindweed (Convolvulus arvensis)
In short: as §1

[8] = tested on: sicklepod (Cassia obtusifolia)
In short: as §1

[9] = tested on: common chickweed (Stellaria media)
In short: as §1

[10] = tested on: black nightshade (Solanum nigrum)
In short: as §1

[11] = tested on: wild chamomile (Matricaria chamomilla)
In short: as §1

Row | Structure (SMILES) | herbicidal activity rating, SA (Sinapis arvensis) [1] | herbicidal activity rating, VH (Veronica hederaefolia) [2] | herbicidal activity rating, BP (Bidens pilosa) [3] | herbicidal activity rating, AR (Amaranthus retroflexus) [4] | herbicidal activity rating, AT (Abutilon theophrasti) [5] | herbicidal activity rating, GA (Galium aparine) [6] | herbicidal activity rating, CA (Convolvulus arvensis) [7] | herbicidal activity rating, CO (Cassia obtusifolia) [8] | herbicidal activity rating, SM (Stellaria media) [9] | herbicidal activity rating, SN (Solanum nigrum) [10] | herbicidal activity rating, MC (Matricaria chamomilla) [11]
1 | CCC(=O)CNC(=O)c1cc(OC)cc(Oc2cccc(C(F)(F)F)c2)n1 [Compound I-86, N-(2-oxobutyl)-4-methoxy-6-{3-(trifluoromethyl)phenoxy}-2-pyridine carboxamide] | 5 (percentage of weeds killed was not less than 80%) | 5 (percentage of weeds killed was not less than 80%) | 4 (percentage of weeds killed was not less than 60% and less than 80%) | 5 (percentage of weeds killed was not less than 80%) | 5 (percentage of weeds killed was not less than 80%) | 5 (percentage of weeds killed was not less than 80%) | 3 (percentage of weeds killed was not less than 40% and less than 60%) | 4 (percentage of weeds killed was not less than 60% and less than 80%) | 5 (percentage of weeds killed was not less than 80%) | 5 (percentage of weeds killed was not less than 80%) | 4 (percentage of weeds killed was not less than 60% and less than 80%)
2 | CCOCNC(=O)c1cc(OC)cc(Oc2cccc(C(F)(F)F)c2)n1 [Compound I-87, N-(ethoxymethyl)-4-methoxy-6-{3-(trifluoromethyl)phenoxy}-2-pyridine carboxamide] | 5 (percentage of weeds killed was not less than 80%) | 5 (percentage of weeds killed was not less than 80%) | 5 (percentage of weeds killed was not less than 80%) | 5 (percentage of weeds killed was not less than 80%) | 5 (percentage of weeds killed was not less than 80%) | 5 (percentage of weeds killed was not less than 80%) | 5 (percentage of weeds killed was not less than 80%) | 5 (percentage of weeds killed was not less than 80%) | 5 (percentage of weeds killed was not less than 80%) | 5 (percentage of weeds killed was not less than 80%) | 5 (percentage of weeds killed was not less than 80%)
3 | COc1cc(Oc2cccc(C(F)(F)F)c2)nc(C(=O)NC(OC)C(F)(F)F)c1 (stereo not drawn) [Compound I-88, N-(1-methoxy-2,2,2-trifluoroethyl)-4-methoxy-6-{3-(trifluoromethyl)phenoxy}-2-pyridine carboxamide] | 5 (percentage of weeds killed was not less than 80%) | 5 (percentage of weeds killed was not less than 80%) | 3 (percentage of weeds killed was not less than 40% and less than 60%) | 5 (percentage of weeds killed was not less than 80%) | 5 (percentage of weeds killed was not less than 80%) | 5 (percentage of weeds killed was not less than 80%) | 5 (percentage of weeds killed was not less than 80%) | 5 (percentage of weeds killed was not less than 80%) | 5 (percentage of weeds killed was not less than 80%) | 5 (percentage of weeds killed was not less than 80%) | 2 (percentage of weeds killed was not less than 20% and less than 40%)
4 | COc1cc(Oc2cccc(C(F)(F)F)c2)nc(C(=O)NCCO)c1 [Compound I-89] | 5 (percentage of weeds killed was not less than 80%) | 5 (percentage of weeds killed was not less than 80%) | 5 (percentage of weeds killed was not less than 80%) | 5 (percentage of weeds killed was not less than 80%) | 4 (percentage of weeds killed was not less than 60% and less than 80%) | 5 (percentage of weeds killed was not less than 80%) | 4 (percentage of weeds killed was not less than 60% and less than 80%) | 5 (percentage of weeds killed was not less than 80%) | 5 (percentage of weeds killed was not less than 80%) | 5 (percentage of weeds killed was not less than 80%) | 3 (percentage of weeds killed was not less than 40% and less than 60%)
5 | COc1cc(Oc2cccc(C(F)(F)F)c2)nc(C(=O)NCCOCCF)c1 [Compound I-90] | 5 (percentage of weeds killed was not less than 80%) | 5 (percentage of weeds killed was not less than 80%) | 5 (percentage of weeds killed was not less than 80%) | 5 (percentage of weeds killed was not less than 80%) | 3 (percentage of weeds killed was not less than 40% and less than 60%) | 5 (percentage of weeds killed was not less than 80%) | 4 (percentage of weeds killed was not less than 60% and less than 80%) | 5 (percentage of weeds killed was not less than 80%) | 5 (percentage of weeds killed was not less than 80%) | 5 (percentage of weeds killed was not less than 80%) | 2 (percentage of weeds killed was not less than 20% and less than 40%)
6 | COc1cc(Oc2cccc(C(F)(F)F)c2)nc(C(=O)NCCSCCF)c1 [Compound I-92, N-{2-(2-fluoroethylmercapto)ethyl}-4-methoxy-6-{3-(trifluoromethyl)phenoxy}-2-pyridine carboxamide] | 5 (percentage of weeds killed was not less than 80%) | 5 (percentage of weeds killed was not less than 80%) | 4 (percentage of weeds killed was not less than 60% and less than 80%) | 5 (percentage of weeds killed was not less than 80%) | 3 (percentage of weeds killed was not less than 40% and less than 60%) | 5 (percentage of weeds killed was not less than 80%) | 4 (percentage of weeds killed was not less than 60% and less than 80%) | 5 (percentage of weeds killed was not less than 80%) | 4 (percentage of weeds killed was not less than 60% and less than 80%) | 5 (percentage of weeds killed was not less than 80%) | 3 (percentage of weeds killed was not less than 40% and less than 60%)
